The molecules below were run on DU-4475 (assay: drug sensitivity score (DSS), CellTiter-Glo (DSS (AUC-based score)); higher = stronger drug effect (viability inhibition or cytotoxicity); extreme values may be limits of the assay). Conditions: incubation time: 72 h.
Outline: (§1)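 Using 20 µl of cell suspension per well, breast cancer cell lines were seeded into 384-well plates pre-loaded with compound at 5 concentrations in 10-fold steps across a compound-specific 10,000-fold range. Incubation lasted 72 h, after which CellTox Green fluorescence at 485/520 nm and then CellTiter-Glo luminescence, following 10 min at room temperature, were recorded. Each plate was normalised to 0.1 % DMSO and a positive kill control before the drug sensitivity score was derived from the area under the fitted dose-response curve.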
With `COCC1(CO)C(=O)C2CCN1CC2` (configuration not stated) [Prima-1 Met] the drug sensitivity score was 0. For `CNC(=O)c1ccc(N2C(=S)N(c3ccc(C#N)c(C(F)(F)F)c3)C(=O)C23CCC3)cc1F` [RD162], the drug sensitivity score was 0. `S=P(N1CC1)(N1CC1)N1CC1` [Thio-TEPA] was tested, and the drug sensitivity score was 0. `CN(C)CCOc1ccc(/C(=C(/CCCl)c2ccccc2)c2ccccc2)cc1` [Toremifene] was tested, and the drug sensitivity score was 0.

What follows are molecules tested on CAL-120 in the same assay as above. Conditions: incubation time: 72 h.
Outline: as §1
For `CCn1c(-c2nonc2N)nc2cnc(Oc3cccc(NC(=O)c4ccc(OCCN5CCOCC5)cc4)c3)cc21`, the drug sensitivity score was 6.49. `COc1cc(O)c2c(c1)/C=C/C[C@H](O)[C@H](O)C(=O)/C=C\C[C@H](C)OC2=O` [(5Z)-7-Oxozeaenol] was tested, and the drug sensitivity score was 4.12. `CNC(=O)c1cccc(-c2ccc3c(N4CCOC[C@@H]4C)nc(N4CCOC[C@@H]4C)nc3n2)c1` [AZD2014] was tested, and the drug sensitivity score was 14.9. `CN(C)c1nc(N(C)C)nc(N(C)C)n1` [Altretamine] was tested, and the drug sensitivity score was 0. `Nc1cc(C(F)(F)F)c(-c2cc(N3CCOCC3)nc(N3CCOCC3)n2)cn1` [Buparlisib] showed a drug sensitivity score of 2.39. `O=P1(N(CCCl)CCCl)NCCCO1` (configuration not stated) [Cyclophosphamide] showed a drug sensitivity score of 0. In the case of `CNC(=O)c1ccc(N2C(=S)N(c3ccc(C#N)c(C(F)(F)F)c3)C(=O)C2(C)C)cc1F` [Enzalutamide], the drug sensitivity score is reported as 0. Work on `C=C1C[C@@H]2[C@H](CC[C@]3(C)C(=O)CC[C@@H]23)[C@@]2(C)C=CC(=O)C=C12` [Exemestane] yielded a drug sensitivity score of 0. Molecule `CCOC(=O)CCNc1cc(N2CCc3ccccc3CC2)nc(-c2ccccn2)n1` [GSK-J4] has a drug sensitivity score of 10.7. `Cc1cc(Nc2cc(CN3CCOCC3)c3nc(C)c(Cc4ccc(Cl)cc4F)n3n2)n[nH]1` [Gandotinib] gave a drug sensitivity score of 3.77. `Oc1ccc2c(c1)CC[C@H](c1ccccc1)[C@@H]2c1ccc(OCCN2CCCC2)cc1` [Lasofoxifene] was tested, and the drug sensitivity score was 0. `COC(=O)c1ccc2c(c1)NC(=O)/C2=C(\Nc1ccc(N(C)C(=O)CN2CCN(C)CC2)cc1)c1ccccc1` [Nintedanib] showed a drug sensitivity score of 3.62. In the case of `COCC1(CO)C(=O)C2CCN1CC2` (configuration not stated) [Prima-1 Met], the drug sensitivity score is reported as 0. `CNC(=O)c1ccc(N2C(=S)N(c3ccc(C#N)c(C(F)(F)F)c3)C(=O)C23CCC3)cc1F` [RD162] showed a drug sensitivity score of 0. With `S=P(N1CC1)(N1CC1)N1CC1` [Thio-TEPA] the drug sensitivity score was 0. `CN(C)CCOc1ccc(/C(=C(/CCCl)c2ccccc2)c2ccccc2)cc1` [Toremifene] gave a drug sensitivity score of 0.

The molecules below were run on BT-549 in the same assay as above. Conditions: incubation time: 72 h.
Outline: as §1
Work on `CCn1c(-c2nonc2N)nc2cnc(Oc3cccc(NC(=O)c4ccc(OCCN5CCOCC5)cc4)c3)cc21` yielded a drug sensitivity score of 5.62. `COc1cc(O)c2c(c1)/C=C/C[C@H](O)[C@H](O)C(=O)/C=C\C[C@H](C)OC2=O` [(5Z)-7-Oxozeaenol] showed a drug sensitivity score of 14. For `CNC(=O)c1cccc(-c2ccc3c(N4CCOC[C@@H]4C)nc(N4CCOC[C@@H]4C)nc3n2)c1` [AZD2014], the drug sensitivity score was 15.3. With `CN(C)c1nc(N(C)C)nc(N(C)C)n1` [Altretamine] the drug sensitivity score was 0. Work on `Nc1cc(C(F)(F)F)c(-c2cc(N3CCOCC3)nc(N3CCOCC3)n2)cn1` [Buparlisib] yielded a drug sensitivity score of 7.05. In the case of `O=P1(N(CCCl)CCCl)NCCCO1` (configuration not stated) [Cyclophosphamide], the drug sensitivity score is reported as 0. Molecule `CNC(=O)c1ccc(N2C(=S)N(c3ccc(C#N)c(C(F)(F)F)c3)C(=O)C2(C)C)cc1F` [Enzalutamide] has a drug sensitivity score of 0. `C=C1C[C@@H]2[C@H](CC[C@]3(C)C(=O)CC[C@@H]23)[C@@]2(C)C=CC(=O)C=C12` [Exemestane] was tested, and the drug sensitivity score was 0. In the case of `CCOC(=O)CCNc1cc(N2CCc3ccccc3CC2)nc(-c2ccccn2)n1` [GSK-J4], the drug sensitivity score is reported as 22.2. With `Cc1cc(Nc2cc(CN3CCOCC3)c3nc(C)c(Cc4ccc(Cl)cc4F)n3n2)n[nH]1` [Gandotinib] the drug sensitivity score was 6.71. `Oc1ccc2c(c1)CC[C@H](c1ccccc1)[C@@H]2c1ccc(OCCN2CCCC2)cc1` [Lasofoxifene] showed a drug sensitivity score of 0. Molecule `COC(=O)c1ccc2c(c1)NC(=O)/C2=C(\Nc1ccc(N(C)C(=O)CN2CCN(C)CC2)cc1)c1ccccc1` [Nintedanib] has a drug sensitivity score of 8.24. `COCC1(CO)C(=O)C2CCN1CC2` (configuration not stated) [Prima-1 Met] was tested, and the drug sensitivity score was 2.79. With `CNC(=O)c1ccc(N2C(=S)N(c3ccc(C#N)c(C(F)(F)F)c3)C(=O)C23CCC3)cc1F` [RD162] the drug sensitivity score was 0. `S=P(N1CC1)(N1CC1)N1CC1` [Thio-TEPA] gave a drug sensitivity score of 1.83. `CN(C)CCOc1ccc(/C(=C(/CCCl)c2ccccc2)c2ccccc2)cc1` [Toremifene] showed a drug sensitivity score of 0.

What follows are molecules tested on HCC1143 in the same assay as above. Conditions: incubation time: 72 h.
Outline: as §1
Molecule `CCn1c(-c2nonc2N)nc2cnc(Oc3cccc(NC(=O)c4ccc(OCCN5CCOCC5)cc4)c3)cc21` has a drug sensitivity score of 0. `COc1cc(O)c2c(c1)/C=C/C[C@H](O)[C@H](O)C(=O)/C=C\C[C@H](C)OC2=O` [(5Z)-7-Oxozeaenol] gave a drug sensitivity score of 2. Molecule `CNC(=O)c1cccc(-c2ccc3c(N4CCOC[C@@H]4C)nc(N4CCOC[C@@H]4C)nc3n2)c1` [AZD2014] has a drug sensitivity score of 12.7. For `CN(C)c1nc(N(C)C)nc(N(C)C)n1` [Altretamine], the drug sensitivity score was 0. `Nc1cc(C(F)(F)F)c(-c2cc(N3CCOCC3)nc(N3CCOCC3)n2)cn1` [Buparlisib] gave a drug sensitivity score of 1.75. `O=P1(N(CCCl)CCCl)NCCCO1` (configuration not stated) [Cyclophosphamide] was tested, and the drug sensitivity score was 0. Work on `CNC(=O)c1ccc(N2C(=S)N(c3ccc(C#N)c(C(F)(F)F)c3)C(=O)C2(C)C)cc1F` [Enzalutamide] yielded a drug sensitivity score of 0. For `C=C1C[C@@H]2[C@H](CC[C@]3(C)C(=O)CC[C@@H]23)[C@@]2(C)C=CC(=O)C=C12` [Exemestane], the drug sensitivity score was 0. Work on `CCOC(=O)CCNc1cc(N2CCc3ccccc3CC2)nc(-c2ccccn2)n1` [GSK-J4] yielded a drug sensitivity score of 12.5. `Cc1cc(Nc2cc(CN3CCOCC3)c3nc(C)c(Cc4ccc(Cl)cc4F)n3n2)n[nH]1` [Gandotinib] was tested, and the drug sensitivity score was 2.62. With `Oc1ccc2c(c1)CC[C@H](c1ccccc1)[C@@H]2c1ccc(OCCN2CCCC2)cc1` [Lasofoxifene] the drug sensitivity score was 0. Molecule `COC(=O)c1ccc2c(c1)NC(=O)/C2=C(\Nc1ccc(N(C)C(=O)CN2CCN(C)CC2)cc1)c1ccccc1` [Nintedanib] has a drug sensitivity score of 2.02. Work on `COCC1(CO)C(=O)C2CCN1CC2` (configuration not stated) [Prima-1 Met] yielded a drug sensitivity score of 0. `CNC(=O)c1ccc(N2C(=S)N(c3ccc(C#N)c(C(F)(F)F)c3)C(=O)C23CCC3)cc1F` [RD162] showed a drug sensitivity score of 0. With `S=P(N1CC1)(N1CC1)N1CC1` [Thio-TEPA] the drug sensitivity score was 0. Work on `CN(C)CCOc1ccc(/C(=C(/CCCl)c2ccccc2)c2ccccc2)cc1` [Toremifene] yielded a drug sensitivity score of 0.

What follows are molecules tested on CAL-148 in the same assay as above. Conditions: incubation time: 72 h.
Outline: as §1
Molecule `CCn1c(-c2nonc2N)nc2cnc(Oc3cccc(NC(=O)c4ccc(OCCN5CCOCC5)cc4)c3)cc21` has a drug sensitivity score of 2.07. In the case of `COc1cc(O)c2c(c1)/C=C/C[C@H](O)[C@H](O)C(=O)/C=C\C[C@H](C)OC2=O` [(5Z)-7-Oxozeaenol], the drug sensitivity score is reported as 7.16. Molecule `CNC(=O)c1cccc(-c2ccc3c(N4CCOC[C@@H]4C)nc(N4CCOC[C@@H]4C)nc3n2)c1` [AZD2014] has a drug sensitivity score of 13.8. Molecule `CN(C)c1nc(N(C)C)nc(N(C)C)n1` [Altretamine] has a drug sensitivity score of 0. Molecule `Nc1cc(C(F)(F)F)c(-c2cc(N3CCOCC3)nc(N3CCOCC3)n2)cn1` [Buparlisib] has a drug sensitivity score of 0. For `O=P1(N(CCCl)CCCl)NCCCO1` (configuration not stated) [Cyclophosphamide], the drug sensitivity score was 0. `CNC(=O)c1ccc(N2C(=S)N(c3ccc(C#N)c(C(F)(F)F)c3)C(=O)C2(C)C)cc1F` [Enzalutamide] showed a drug sensitivity score of 0. `C=C1C[C@@H]2[C@H](CC[C@]3(C)C(=O)CC[C@@H]23)[C@@]2(C)C=CC(=O)C=C12` [Exemestane] showed a drug sensitivity score of 0. `CCOC(=O)CCNc1cc(N2CCc3ccccc3CC2)nc(-c2ccccn2)n1` [GSK-J4] gave a drug sensitivity score of 17.3. In the case of `Cc1cc(Nc2cc(CN3CCOCC3)c3nc(C)c(Cc4ccc(Cl)cc4F)n3n2)n[nH]1` [Gandotinib], the drug sensitivity score is reported as 0. `Oc1ccc2c(c1)CC[C@H](c1ccccc1)[C@@H]2c1ccc(OCCN2CCCC2)cc1` [Lasofoxifene] gave a drug sensitivity score of 0. `COC(=O)c1ccc2c(c1)NC(=O)/C2=C(\Nc1ccc(N(C)C(=O)CN2CCN(C)CC2)cc1)c1ccccc1` [Nintedanib] gave a drug sensitivity score of 0. `COCC1(CO)C(=O)C2CCN1CC2` (configuration not stated) [Prima-1 Met] showed a drug sensitivity score of 0. Work on `CNC(=O)c1ccc(N2C(=S)N(c3ccc(C#N)c(C(F)(F)F)c3)C(=O)C23CCC3)cc1F` [RD162] yielded a drug sensitivity score of 0. `S=P(N1CC1)(N1CC1)N1CC1` [Thio-TEPA] gave a drug sensitivity score of 0. With `CN(C)CCOc1ccc(/C(=C(/CCCl)c2ccccc2)c2ccccc2)cc1` [Toremifene] the drug sensitivity score was 0.

The molecules below were run on HCC1937 in the same assay as above. Conditions: incubation time: 72 h.
Outline: as §1
With `CCn1c(-c2nonc2N)nc2cnc(Oc3cccc(NC(=O)c4ccc(OCCN5CCOCC5)cc4)c3)cc21` the drug sensitivity score was 0. `COc1cc(O)c2c(c1)/C=C/C[C@H](O)[C@H](O)C(=O)/C=C\C[C@H](C)OC2=O` [(5Z)-7-Oxozeaenol] was tested, and the drug sensitivity score was 5.41. `CNC(=O)c1cccc(-c2ccc3c(N4CCOC[C@@H]4C)nc(N4CCOC[C@@H]4C)nc3n2)c1` [AZD2014] showed a drug sensitivity score of 9.48. With `CN(C)c1nc(N(C)C)nc(N(C)C)n1` [Altretamine] the drug sensitivity score was 0. `Nc1cc(C(F)(F)F)c(-c2cc(N3CCOCC3)nc(N3CCOCC3)n2)cn1` [Buparlisib] gave a drug sensitivity score of 3.29. Molecule `O=P1(N(CCCl)CCCl)NCCCO1` (configuration not stated) [Cyclophosphamide] has a drug sensitivity score of 0. `CNC(=O)c1ccc(N2C(=S)N(c3ccc(C#N)c(C(F)(F)F)c3)C(=O)C2(C)C)cc1F` [Enzalutamide] was tested, and the drug sensitivity score was 0. `C=C1C[C@@H]2[C@H](CC[C@]3(C)C(=O)CC[C@@H]23)[C@@]2(C)C=CC(=O)C=C12` [Exemestane] gave a drug sensitivity score of 0. Molecule `CCOC(=O)CCNc1cc(N2CCc3ccccc3CC2)nc(-c2ccccn2)n1` [GSK-J4] has a drug sensitivity score of 12.

— the supplement of paper PMC4862054
